Read-outs that look alike come from different tables or passages of the source.
Tests used:
NAMPT = target: T1, NAMPT (Homo sapiens, UniProt P43490); test: Biochemical inhibition assay: NAMPT enzymatic reaction, NMN quantified by mass spectrometry; conditions: read-out: Biochem IC50
T1 construct: His tag; host or cells: E. coli
Method in brief: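 Inhibition of E. coli-expressed His-tagged human NAMPT, measured as NMN formation by mass spectrometry after a 30 min room-temperature reaction containing 1 μM NAM, 100 μM PRPP and 2.5 mM ATP.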

A2780 cells = test: In-vitro cell proliferation assay (SRB), A2780 cells; format: cell-based; conditions: Homo sapiens, A2780, 72 h, A2780 cells, 72 hours, read-out: A2780 IC50
Method in brief: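 Viable cells measured by SRB staining after 6% TCA fixation, absorbance 570 nm. Media-only background subtracted; % inhibition derived at two compound concentrations.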

T1 sequence (P43490 whole entry): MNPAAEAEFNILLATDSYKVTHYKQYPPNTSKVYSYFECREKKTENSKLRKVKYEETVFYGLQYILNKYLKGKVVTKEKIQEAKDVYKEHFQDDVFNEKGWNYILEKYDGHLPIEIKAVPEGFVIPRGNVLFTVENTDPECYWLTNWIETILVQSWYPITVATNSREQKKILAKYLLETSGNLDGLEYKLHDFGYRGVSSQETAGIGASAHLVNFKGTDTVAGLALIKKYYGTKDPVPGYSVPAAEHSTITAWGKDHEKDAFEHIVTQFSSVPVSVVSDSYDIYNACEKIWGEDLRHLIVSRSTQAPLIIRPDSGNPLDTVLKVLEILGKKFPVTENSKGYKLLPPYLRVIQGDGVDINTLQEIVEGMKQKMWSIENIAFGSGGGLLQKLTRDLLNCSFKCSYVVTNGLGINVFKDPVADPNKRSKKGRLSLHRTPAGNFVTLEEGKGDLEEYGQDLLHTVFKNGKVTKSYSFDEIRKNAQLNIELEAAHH

SMILES | IC50 (NAMPT; NAMPT enzymatic assay) | IC50 (A2780 cells; SRB) | IC50 (NAMPT; NAMPT enzymatic reaction) | IC50 (A2780 cells; SRB assay)
O=C(NCc1ccc(S(=O)(=O)c2ccc(C(F)(F)F)cc2C(F)(F)F)cc1)c1ccc2nccn2c1 | 0.22 µM | 0.0532 µM | – | –
O=C(NCc1ccc(S(=O)(=O)c2cnn(-c3ccc(F)cc3)c2)cc1)c1cc2ccncc2o1 [N-({4-[1-(4-fluorophenyl)-1H-pyrazole-4-sulfonyl]phenyl}methyl)furo[2,3-c]pyridine-2-carboxamide] | 0.0069 µM | 0.0074 µM | – | –
O=C(NCc1ccc(S(=O)(=O)N2CCCCC2)cc1)c1ccc2ncsc2c1 [N-{[4-(piperidine-1-sulfonyl)phenyl]methyl}-1,3-benzothiazole-6-carboxamide] | – | – | 0.009 µM | 0.01 µM
CC(C)(C)c1cccc(S(=O)(=O)c2ccc(CNC(=O)c3cc4ccncc4s3)cc2)c1 | – | 0.0091 µM | 0.0105 µM | –
Cc1ccc(F)cc1S(=O)(=O)c1ccc(CNC(=O)c2cc3ccncc3o2)cc1 | – | 0.0249 µM | 0.0143 µM | –
Cc1nc(C)c(S(=O)(=O)c2ccc(CNC(=O)c3cc4ccncc4s3)cc2)s1 [N-{[4-(dimethyl-1,3-thiazole-5-sulfonyl)phenyl]methyl}thieno[2,3-c]pyridine-2-carboxamide] | 0.0013 µM | 0.003 µM | – | –
O=C(NCc1ccc(S(=O)(=O)c2ccccc2)cc1)c1cc2nccnc2s1 [N-{[4-(benzenesulfonyl)phenyl]methyl}thieno[2,3-b]pyrazine-6-carboxamide] | – | – | 0.052 µM | > 30 µM
CC(=O)c1ccccc1S(=O)(=O)c1ccc(CNC(=O)c2cc3ccncc3s2)cc1 [N-({4-[(2-acetylbenzene)sulfonyl]phenyl}methyl)thieno[2,3-c]pyridine-2-carboxamide] | – | – | 0.001 µM | 0.001 µM
O=C(NCc1ccc(S(=O)(=O)c2ccc(C(F)(F)F)cc2C(F)(F)F)cc1)c1cc2ccncc2s1 [N-[(4-{[2,4-bis(trifluoromethyl)benzene]sulfonyl}phenyl)methyl]thieno[2,3-c]pyridine-2-carboxamide] | 0.0215 µM | 0.0043 µM | – | –
COc1cc(C)c(S(=O)(=O)c2ccc(CNC(=O)c3ccc4nccn4c3)cc2)cc1C | – | 0.006 µM | 0.0281 µM | –
O=C(NCc1ccc(S(=O)(=O)c2cc(C(F)(F)F)ccc2Cl)cc1)c1cnc2nccn2c1 | 0.007 µM | 0.0141 µM | – | –
Cc1cc(S(=O)(=O)c2ccc(CNC(=O)c3cc4ccncc4o3)cc2)c(C)cc1F | – | 0.0242 µM | 0.0176 µM | –
COc1cc(F)ccc1S(=O)(=O)c1ccc(CNC(=O)c2cc3ccncc3s2)cc1 [N-({4-[(4-fluoro-2-methoxybenzene)sulfonyl]phenyl}methyl)thieno[2,3-c]pyridine-2-carboxamide] | – | – | 0.009 µM | 0.0065 µM
CCNC(=O)c1cccc(S(=O)(=O)c2ccc(CNC(=O)c3cc4ccncc4o3)cc2)c1 | 0.006 µM | 0.0064 µM | – | –
COc1ccc(F)c(S(=O)(=O)c2ccc(CNC(=O)c3ccc4nccn4c3)cc2)c1 | – | 0.0128 µM | 0.0047 µM | –
Cn1cc2cc(S(=O)(=O)c3ccc(CNC(=O)c4cc5ccncc5s4)cc3)ccc2n1 [N-{[4-(2-methyl-2H-indazole-5-sulfonyl)phenyl]methyl}thieno[2,3-c]pyridine-2-carboxamide] | 0.0055 µM | 0.0033 µM | – | –
O=C(NCc1ccc(S(=O)(=O)c2ccc(OC(F)(F)F)c(F)c2)cc1)c1cnc2[nH]ncc2c1 [N-[(4-{[3-fluoro-4-(trifluoromethoxy)benzene]sulfonyl}phenyl)methyl]-1H-pyrazolo[3,4-b]pyridine-5-carboxamide] | 0.0174 µM | 0.0137 µM | – | –
O=C(NCc1ccc(S(=O)(=O)c2ccccc2OCc2ccccc2)cc1)c1cc2cnccc2[nH]1 [N-[(4-{[2-(benzyloxy)benzene]sulfonyl}phenyl)methyl]-1H-pyrrolo[3,2-c]pyridine-2-carboxamide] | – | – | 0.018 µM | 0.033 µM
COc1ccc(Cl)c(S(=O)(=O)c2ccc(CNC(=O)c3ccc4nccn4c3)cc2)c1 | – | 0.0027 µM | 0.0056 µM | –
CCCCOc1ccc(S(=O)(=O)c2ccc(CNC(=O)c3cc4ccncc4o3)cc2)cc1 [N-({4-[(4-butoxybenzene)sulfonyl]phenyl}methyl)furo[2,3-c]pyridine-2-carboxamide] | – | 0.013 µM | 0.0062 µM | –
O=C(NCc1ccc(S(=O)(=O)c2ccc(CO)cc2)cc1)c1ccc2nccn2c1 | 0.0142 µM | 0.0129 µM | – | –
O=C(NCc1ccc(S(=O)(=O)c2cnn(-c3cccc(Cl)c3)c2)cc1)c1cc2ccncc2s1 [N-({4-[1-(3-chlorophenyl)-1H-pyrazole-4-sulfonyl]phenyl}methyl)thieno[2,3-c]pyridine-2-carboxamide] | 0.0041 µM | 0.0139 µM | – | –

SMILES | IC50 (NAMPT; NAMPT enzymatic assay) | IC50 (A2780 cells; SRB) | IC50 (NAMPT; NAMPT enzymatic reaction) | IC50 (A2780 cells; SRB assay)
N#CC1(c2ccc(S(=O)(=O)c3ccc(CNC(=O)c4cc5cnccc5[nH]4)cc3)cc2)CCCC1 | 0.0601 µM | 0.0189 µM | – | –
O=C(NCc1ccc(S(=O)(=O)c2ccc3c(c2)OCO3)cc1)c1cc2ccncc2o1 [N-{[4-(2H-1,3-benzodioxole-5-sulfonyl)phenyl]methyl}furo[2,3-c]pyridine-2-carboxamide] | 0.0053 µM | 0.0087 µM | – | –
O=C(NCc1ccc(S(=O)(=O)c2cc(F)cc(C(F)(F)F)c2)cc1)c1cnc2[nH]ncc2c1 [N-[(4-{[3-fluoro-5-(trifluoromethyl)benzene]sulfonyl}phenyl)methyl]-1H-pyrazolo[3,4-b]pyridine-5-carboxamide] | 0.0112 µM | 0.00345 µM | – | –
COc1ccc(S(=O)(=O)c2ccc(CNC(=O)c3ccc4nccn4c3)cc2)cc1C [N-({4-[(4-methoxy-3-methylbenzene)sulfonyl]phenyl}methyl)imidazo[1,2-a]pyridine-6-carboxamide] | – | 0.00532 µM | 0.0141 µM | –
CC(=O)c1cccc(S(=O)(=O)c2ccc(CNC(=O)c3cc4ccncc4s3)cc2)c1 [N-({4-[(3-acetylbenzene)sulfonyl]phenyl}methyl)thieno[2,3-c]pyridine-2-carboxamide] | – | – | 0.004 µM | 0.0026 µM
O=C(NCc1ccc(S(=O)(=O)c2cc(F)ccc2CO)cc1)c1cc2ccncc2o1 [N-[(4-{[5-fluoro-2-(hydroxymethyl)benzene]sulfonyl}phenyl)methyl]furo[2,3-c]pyridine-2-carboxamide] | 0.0229 µM | 0.067 µM | – | –
CN(C)C(=O)c1ccccc1S(=O)(=O)c1ccc(CNC(=O)c2cc3ccncc3o2)cc1 | 0.1 to 1 µM | 1 to 10 µM | – | –
CNS(=O)(=O)c1ccccc1S(=O)(=O)c1ccc(CNC(=O)c2cnc3[nH]ncc3c2)cc1 [N-[(4-{[2-(methylsulfamoyl)benzene]sulfonyl}phenyl)methyl]-1H-pyrazolo[3,4-b]pyridine-5-carboxamide] | > 0.167 µM | > 10 µM | – | –
O=C(NCc1ccc(S(=O)(=O)c2ccc(Cl)cc2C(F)(F)F)cc1)c1cc2ccncc2s1 | 0.007 µM | 0.0096 µM | – | –
Cc1nc(-c2cccc(S(=O)(=O)c3ccc(CNC(=O)c4cnc5nccn5c4)cc3)c2)no1 | 0.0028 µM | 0.0023 µM | – | –
O=C(NCc1ccc(S(=O)(=O)c2cccc3c2Oc2ccccc2S3)cc1)c1cc2cnccc2[nH]1 [N-{[4-(phenoxathiine-4-sulfonyl)phenyl]methyl}-1H-pyrrolo[3,2-c]pyridine-2-carboxamide] | – | – | 0.005 µM | 0.0009 µM
CCc1ccc(S(=O)(=O)c2ccc(CNC(=O)c3cc4cnccc4[nH]3)cc2)cc1 [N-({4-[(4-ethylbenzene)sulfonyl]phenyl}methyl)-1H-pyrrolo[3,2-c]pyridine-2-carboxamide] | – | – | 0.008 µM | 0.012 µM
O=C(NCc1ccc(S(=O)(=O)c2cccc(F)c2)cc1)c1cc2cnccc2[nH]1 [N-({4-[(3-fluorobenzene)sulfonyl]phenyl}methyl)-1H-pyrrolo[3,2-c]pyridine-2-carboxamide] | – | – | 0.009 µM | 0.01 µM
CCCOc1cccc(S(=O)(=O)c2ccc(CNC(=O)c3cc4ccncc4o3)cc2)c1 | – | 0.0252 µM | 0.0101 µM | –
O=C(NCc1ccc(S(=O)(=O)c2ccc(C(F)(F)F)cc2Cl)cc1)c1cc2cnccc2[nH]1 | 0.127 µM | 0.0254 µM | – | –
O=C(NCc1ccc(S(=O)(=O)c2ccc3nc(C(F)(F)F)cn3c2)cc1)c1cnc2[nH]ncc2c1 [N-({4-[2-(trifluoromethyl)imidazo[1,2-a]pyridine-6-sulfonyl]phenyl}methyl)-1H-pyrazolo[3,4-b]pyridine-5-carboxamide] | 0.0497 µM | 0.033 µM | – | –
N#Cc1ccccc1S(=O)(=O)c1ccc(CNC(=O)c2cnc3[nH]ncc3c2)cc1 [N-({4-[(2-cyanobenzene)sulfonyl]phenyl}methyl)-1H-pyrazolo[3,4-b]pyridine-5-carboxamide] | – | 0.1 to 1 µM | 0.131 µM | –
CCOc1cccc(S(=O)(=O)c2ccc(CNC(=O)c3cc4ccncc4s3)cc2)c1F | – | 0.0129 µM | 0.0037 µM | –
O=C(NCc1ccc(S(=O)(=O)c2cccc(F)c2)cc1)c1ccc2nccn2c1 [N-({4-[(3-fluorobenzene)sulfonyl]phenyl}methyl)imidazo[1,2-a]pyridine-6-carboxamide] | – | 0.0122 µM | 0.0221 µM | –
COc1cccc(S(=O)(=O)c2ccc(CNC(=O)c3cc4ccncc4s3)cc2)c1OC [N-({4-[(2,3-dimethoxybenzene)sulfonyl]phenyl}methyl)thieno[2,3-c]pyridine-2-carboxamide] | 0.009 µM | 0.0034 µM | – | –
Cc1nc(C)c(S(=O)(=O)c2ccc(CNC(=O)c3ccc4nccn4c3)cc2)s1 [N-{[4-(dimethyl-1,3-thiazole-5-sulfonyl)phenyl]methyl}imidazo[1,2-a]pyridine-6-carboxamide] | 0.009 µM | 0.0037 µM | – | –
COc1ccc(Cl)cc1S(=O)(=O)c1ccc(CNC(=O)c2cnc3[nH]ncc3c2)cc1 | – | 0.0081 µM | 0.0492 µM | –

Reference: US12336981B2, “Compounds and compositions for the inhibition of NAMPT” (Valo Health, Inc., priority 2010, dated 2025)
